# Reference: US20100093824A1 (priority 2006, published 2010)
# Like-named read-outs stand apart in the source and are kept apart here. Non-standard residues stand in square brackets, D forms with d. Residues, ends and D or L forms follow the SMILES beside them. Nle = CCCC[C@H](N)C(=O)O
# What was measured:
# [1] = mouse, in vivo, ip
# poliovirus [2] = tested on: poliovirus; design: species or system cPVR transgenic mice; details: mouse, in vivo
# [3] = tested on: L protein, the Respiratory Syncytial virus polymerase; format: cell-based, RSV, strain A2; details: Hep-2 cells, 17AAG 5 μM
# capsid precursor P1 = format: cell-based, poliovirus
# poliovirus [4] = assay: microbe, parasite or virus in culture; format: cell-based, Poliovirus Mahoney type 1 strain; details: Enterovirus C, HeLa S3, read-out: inhibition of virus production in vRNA transfected cells
# poliovirus [5] = format: cell-based
# poliovirus [6] = assay: microbe, parasite or virus in culture; format: cell-based, Poliovirus Mahoney type 1 strain; details: Enterovirus C, Fibroblast, read-out: inhibition of poliovirus replication
# poliovirus [7] = assay: microbe, parasite or virus in culture; format: cell-based, Poliovirus Mahoney type 1 strain; details: Enterovirus C, HeLa S3, 7 h, read-out: IC50 of inhibition of poliovirus replication
compound,measurement,setting,value
"C=CCNC1=C2C[C@@H](C)CC(OC)[C@H](O)[C@@H](C)/C=C(\C)C(OC(N)=O)C(OC)/C=C\C=C(/C)C(=O)NC(=CC1=O)C2=O (stereo partly shown) [17AAG, 17-Allylamino-17-demethoxygeldanamycin]",apparent toxicity to the treated animal,[1],did not result in any apparent toxicity
same,viral load in the CNS,poliovirus [2],dramatically reduced the viral load
same,mice with virus decreased to undetectable levels,poliovirus [2]; 2.5 mg/kg,4 of 8
same,mice with virus decreased to undetectable levels,poliovirus [2]; 25 mg/kg,5 of 8
same,effect on RSV L protein,[3],causes degradation of L protein
"CCCC[C@@H](C=O)NC(=O)[C@H](CC(C)C)NC(=O)[C@H](CC(C)C)NC(C)=O [ALLN, N-Acetyl-L-leucyl-L-leucyl-L-norleucinal] (Ac-Leu-Leu-[Nle]-aldehyde)",protection of P1 from GA-induced degradation,capsid precursor P1,protected P1 from degradation
"COC1=C2C[C@@H](C)C[C@H](OC)[C@H](O)[C@@H](C)/C=C(\C)[C@H](OC(N)=O)[C@@H](OC)/C=C\C=C(/C)C(=O)NC(=CC1=O)C2=O [GA, Geldanamycin]",inhibition at 2 µM,poliovirus [4],95%
same,reduction in virus production,poliovirus [5],~50%
same,inhibition at 0.1 µM,poliovirus [6],> 99%
same,IC50,poliovirus [7],110 nM
same,time in which P1 was readily degraded after treatment,capsid precursor P1,≤ 3 h
"CC(=O)N[C@@H](CSC(=O)[C@]1([C@@H](O)C(C)C)NC(=O)[C@H](C)[C@@H]1O)C(=O)O [lactacystin, Lactacystin]",protection of P1 from GA-induced degradation,capsid precursor P1,protected P1 from degradation
trichostatin A [TSA],maximal reduction in virus production,poliovirus [5],30%
